# Reference: patent publication US20230104487A1, “11-(4-CHLOROPHENYL)-4-(2,3-DIHYDRO-1H-INDOLE-1-CARBONYL)-3,11-DIMETHYL-5,10,DIOXATRICYCLO[7.4.0.0,2,6,]TRIDECA-1,3,6,8-TETRAEN-13-ONE AND DERIVATIVES AS DESTABILIZER OF CRY1 FOR THE TREATMENT OF CIRCADIAN RHYTHM ASSOCIATED DISEASES AND DISORDERS” (KOC UNIVERSITESI, priority 2019, published 2023)
# “Also recorded” adds a separate entry of the source.
# How the values were obtained:
# CRY1 = target: T1, CRY1 (Mus musculus, UniProt P97784); test: CRY1 level in mouse liver (whole cell lysate, cytosolic and nuclear fraction); assay type: in vivo; set-up: from tissue; host or cells: liver of C57BL/6J mice; conditions: 25 and 50 mg/kg i.p., 6 h
# T1 sequence (P97784 1-606): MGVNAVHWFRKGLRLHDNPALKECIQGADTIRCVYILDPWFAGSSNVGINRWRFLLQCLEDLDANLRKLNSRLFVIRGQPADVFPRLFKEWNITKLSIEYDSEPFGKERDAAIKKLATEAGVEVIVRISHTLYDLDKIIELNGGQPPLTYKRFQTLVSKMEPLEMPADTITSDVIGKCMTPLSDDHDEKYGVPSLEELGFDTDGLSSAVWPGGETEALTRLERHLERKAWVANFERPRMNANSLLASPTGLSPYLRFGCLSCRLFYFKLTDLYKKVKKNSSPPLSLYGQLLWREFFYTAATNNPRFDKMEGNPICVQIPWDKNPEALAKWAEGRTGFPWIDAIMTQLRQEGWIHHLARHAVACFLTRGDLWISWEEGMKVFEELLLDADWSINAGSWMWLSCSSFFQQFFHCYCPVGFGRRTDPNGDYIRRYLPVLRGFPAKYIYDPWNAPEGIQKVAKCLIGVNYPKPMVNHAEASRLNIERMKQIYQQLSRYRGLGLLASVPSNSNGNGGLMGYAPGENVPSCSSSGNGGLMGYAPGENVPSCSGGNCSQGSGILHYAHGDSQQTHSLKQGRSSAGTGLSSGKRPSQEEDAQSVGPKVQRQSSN
# Protocol: FIGS. 5A-5G are an illustration of FORMULA I decreased the nuclear CRY1 in mice liver. FORMULA I (25 mg/kg or 50 mg/kg) or vehicle intraperitoneally administered to C57BL/6J mice. 6 h after the treated mice were sacrificed (n=3). […] FIGS. 5A-5B show an effect of FORMULA I in WCL. FIG. 5C-5D show an effect of FORMULA I in cytosolic fraction. FIGS. 5E-5F show an effect of FORMULA I in nuclear fraction of muce liver. […] (Data represent the mean±SEM, n=3 (with duplicates in RT-PCR) *: p<0.05 versus control by student t-test).
# Cells were lysed in RIPA buffer (50 mM Tris, 150 mM NaCl, 1% Triton-X, 0.1% SDS) with fresh Protease inhibitor cocktail (PIC). After centrifugation at 13000 rpm for 15 minutes at 4° C., supernatant was used to determine the protein amount using Pierce Protein Assay (Thermo Scientific) according to the manufacturer's instruction. Mice liver samples were homogenized and lysed with Dounce homogenizer and RIPA buffer. After homogenization samples were incubated 10 minutes on ice. After centrifugation 13000 rpm 15 minutes at 4° C. supernatant was used for the whole cell lysate. Subcellular fractionation of liver samples: Liver samples were homogenized with cytosolic lysis buffer (10 mM HEPES pH 7.9, 10 mM KCl, 0.1 mM EDTA, 0.05% NP40, proteasome inhibitor) by pipetting 40 times with a cut tip. Then samples were incubated 10 minutes on ice and centrifuged for 3 minutes at 3000 rpm at 4° C. Supernatant was saved in a new tube, and pellet was processed for the nuclear fraction. Supernatant was centrifuged at 13000 rpm for 3 minutes at 4° C. where new supernatant saved as the cytosolic fraction. […] ECL buffer system (Advansta WesternBright) was used to visualize HRP chemi-luminescence via BioRad ChemiDoc Touch visualizer. […]
# Since CRYs are stabilized and degraded differently in cytosolic and nuclear compartments, we further analyzed the level of CRY1 in the cytosolic and nuclear fraction of the mouse liver. […]
# C57BL/6J mice = test: Circadian behavioral analysis (locomotor activity); assay type: in vivo, mouse; conditions: constant dark conditions
# Protocol: C57BL/6J mice were synchronized 10 days under 12 h:12 h light-dark cycles. After 10 days mice were treated with intraperitoneal dose of 60 mg/kg FORMULA I or vehicle for 14 days and kept under constant darkness (n=12). Locomotor activity of mice were recorded for additional 10-days without any injection. During these days locomotor activity of mice were recorded by ClockLab (Actimetrics) software program. FIG. 7A Representative locomotor activity of mice injected with vehicle (n=5) or FIG. 7B FORMULA I (n=7). FIG. 7C Period and FIG. 7D amplitude of mice under different conditions and injected with vehicle or FORMULA I. Period and amplitude values were calculated by using ClockLab Analysis (Actimetrics) program. Statistical significance was evaluated using one-way analysis of variance (ANOVA), followed by a Tukey's multiple comparisons test using Prism software (GraphPad Software)
# Mice were housed in individual cages within a temperature- and humidity-controlled, light-tight enclosure. Each cage contained a running wheel. Food and water were allowed ad libitum. Animals were entrained to a 12:12 h L:D cycle for ≥2 weeks before being released into constant darkness. Then, vehicle (n=5) and FORMULA I (n=6) administered to animals for 5 days and then animals were kept under constant conditions for more than 2 weeks. […]
structure (smiles),measurement,setting,value
"Cc1c(C(=O)N2CCc3ccccc32)oc2ccc3c(c12)C(=O)CC(C)(c1ccc(Cl)cc1)O3 (centres unmarked) [FORMULA I, 11-(4-chlorophenyl)-4-(2,3-dihydro-1H-indole-1-carbonyl)-3,11-dimethyl-5,10,dioxatricyclo[7.4.0.0,2,6,]trideca-1,3,6,8-tetraen-13-one]",CRY1 level in cytosolic fraction of liver,CRY1,not statistically significant compared to controls; also recorded: slightly decreased the CRY1 levels
same,CRY1 level in nuclear fraction of liver,CRY1,significantly low compared to controls in dose dependent manner; also recorded: decreased the nuclear CRY1 level significantly; also recorded: selectively decrease CRY1 level in the nucleus
same,CRY1 level in whole cell lysate of liver,CRY1,slight decrease in CRY1 levels; also recorded: slightly decreased the CRY1 levels
same,amplitude of locomotor activity,C57BL/6J mice,statistically significant impact on the amplitude
same,shortening of locomotor period length versus vehicle,C57BL/6J mice,approximately 14 min
